Reference: ChEMBL document CHEMBL4828764, “Lead Optimization and Structure-Activity Relationship Studies on Myeloid Ecotropic Viral Integration Site 1 Inhibitor” (J Med Chem, 2021)
The source made the active and inactive calls. No cut-off for these calls is given here.

Assays:
Type in all cases: cell-based
[1] = target: T1, Homeobox protein Meis1 (Homo sapiens) (UniProt O00470); assay: Inhibition of MEIS1 (unknown origin) expressed in HEK293T cells co-expressing MEIS-Luc-pGL2 assessed as luciferase activity at 10 uM incubated for 48 hrs by luciferase reporter assay related to protein content; parameters: scale not given: the % may be the effect or the level left
T1 sequence (whole entry): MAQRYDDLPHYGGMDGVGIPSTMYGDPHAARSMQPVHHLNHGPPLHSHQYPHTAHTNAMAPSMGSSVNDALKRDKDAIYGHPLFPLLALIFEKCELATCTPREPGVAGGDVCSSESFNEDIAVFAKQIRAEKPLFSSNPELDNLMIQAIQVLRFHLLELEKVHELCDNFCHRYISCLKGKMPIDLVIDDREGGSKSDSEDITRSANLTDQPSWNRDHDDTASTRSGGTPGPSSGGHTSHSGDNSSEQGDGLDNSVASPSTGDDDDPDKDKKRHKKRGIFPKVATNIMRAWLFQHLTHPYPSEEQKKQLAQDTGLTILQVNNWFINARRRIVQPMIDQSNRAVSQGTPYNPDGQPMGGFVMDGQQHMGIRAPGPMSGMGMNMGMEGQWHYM

[2] = target: T1, Homeobox protein Meis1 (Homo sapiens); assay: Inhibition of MEIS1 (unknown origin) expressed in HEK293T cells co-expressing MEIS-Luc-pGL2 assessed as luciferase activity at 10 uM incubated for 48 hrs by luciferase reporter assay related to […] control; parameters: scale not given: the % may be the effect or the level left
[3] = target: T1, Homeobox protein Meis1 (Homo sapiens); assay: Inhibition of MEIS1 (unknown origin) expressed in HEK293T cells co-expressing MEIS-Luc-pGL2 assessed as downregulation of p21 gene expression by measuring mRNA level at 10 uM incubated for 2 days by RT-qPCR analysis; parameters: scale not given: the % may be the effect or the level left; conditions: time 2.0 day
[4] = target: T1, Homeobox protein Meis1 (Homo sapiens); assay: Inhibition of MEIS1 (unknown origin) expressed in HEK293T cells co-expressing MEIS-Luc-pGL2 assessed as downregulation of Meis1 gene expression measuring mRNA level at 10 uM incubated for 2 days by RT-qPCR analysis; parameters: scale not given: the % may be the effect or the level left; conditions: time 2.0 day
[5] = target: T1, Homeobox protein Meis1 (Homo sapiens); assay: Inhibition of MEIS1 (unknown origin) expressed in HEK293T cells co-expressing MEIS-Luc-pGL2 assessed as downregulation of Hif-Ialpha gene expression measuring mRNA level at 10 uM incubated for 2 days by RT-qPCR analysis; conditions: time 2.0 day
[6] = Cytotoxicity against HDF assessed as cell viability at 10 uM incubated for 72 hrs by MTS assay; conditions: human, HDF (NHDF) cells, read-out: Activity

Activity [1] [%] | Activity [2] [%] | Activity [3] [%] | Activity [4] [%] | Activity [5] | SMILES | viability at 72 h, 10 µM [6] [%]
83 | 75 | – | – | – | O=C(COc1ccc(C(=O)Nc2ccccc2)cc1)NCc1ccc(Cl)cc1 | –
51 | 36 | 139 | 19.2 | Active | CCc1ccccc1NC(=O)c1ccc(OCC(=O)NCc2ccc(Cl)cc2)cc1 | 31.3
65 | 40 | – | – | – | O=C(COc1ccc(C(=O)Nc2ccccc2F)cc1)NCc1ccc(Cl)cc1 | –
54 | 48 | – | – | – | O=C(COc1ccc(C(=O)Nc2ccccc2)cc1)NCc1ccccc1Cl | –
63 | 66 | – | – | – | CCc1ccccc1NC(=O)c1ccc(OCC(=O)NCc2ccccc2Cl)cc1 | –
43 | 43 | – | – | – | COc1ccc(CNC(=O)COc2ccc(C(=O)Nc3ccccc3)cc2)cc1 | –
43 | 34 | 25.3 | 13.7 | Active | Cc1cccc(NC(=O)c2ccc(OCC(=O)NCc3ccccc3Cl)cc2)c1C | 64.8
51 | 50 | – | – | – | O=C(COc1ccc(C(=O)Nc2ccc(F)cc2)cc1)NCc1ccccc1Cl | –
48 | 161 | – | – | – | Cc1cccc(NC(=O)c2ccc(OCC(=O)NCc3cccc(Cl)c3Cl)cc2)c1C | –
80 | 82 | – | – | – | COc1ccc(NC(=O)c2ccc(OCC(=O)NCc3ccccc3Cl)cc2)cc1OC | –
88 | 96 | – | – | – | O=C(COc1ccc(C(=O)Nc2cccc(Cl)c2)cc1)NCc1ccccc1Cl | –
64 | 57 | – | – | – | O=C(COc1ccc(C(=O)Nc2cccc(C(F)(F)F)c2)cc1)NCc1ccccc1Cl | –
53 | 58 | – | – | – | Cc1cccc(C)c1NC(=O)c1ccc(OCC(=O)NCc2ccccc2Cl)cc1 | –
51 | 32 | 19.7 | 4.5 | Active | O=C(COc1ccc(C(=O)Nc2cccc(Cl)c2)cc1)NCc1ccc(Cl)cc1 | 86.4
69 | 43 | – | – | – | O=C(COc1ccc(C(=O)Nc2ccc(F)cc2)cc1)NCc1ccc(Cl)cc1 | –
64 | 62 | – | – | – | O=C(COc1ccc(C(=O)Nc2ccccc2F)cc1)NCc1ccccc1Cl | –
82 | 82 | – | – | – | O=C(COc1ccc(C(=O)Nc2ccc(Oc3ccc(Br)cc3)cc2)cc1)NCc1ccccc1Cl | –
42 | 41 | – | – | – | CCc1cccc(NC(=O)c2ccc(OCC(=O)NCc3ccccc3Cl)cc2)c1 | –
66 | 69 | 17.8 | 12 | – | Cc1cccc(NC(=O)c2ccc(OCC(=O)NCc3ccccc3)cc2)c1C | –

More lines, now with the values behind:

SMILES | Activity [1] [%] | Activity [2] [%] | Activity [3] [%] | Activity [4] [%] | Activity [5] | viability at 72 h, 10 µM [6] [%]
Cc1cccc(NC(=O)c2ccc(OCC(=O)NCc3ccc(Cl)c(Cl)c3)cc2)c1C | 57 | 47 | – | – | – | –
COc1ccc(CNC(=O)COc2ccc(C(=O)Nc3cc(C(F)(F)F)ccc3F)cc2)cc1 | 28 | 30 | 5.2 | 6.6 | Active | 105
COc1ccc(CNC(=O)COc2ccc(C(=O)Nc3ccc(Oc4ccc(Br)cc4)cc3)cc2)cc1 | 37 | 45 | – | – | – | –
COc1ccc(CNC(=O)COc2ccc(C(=O)Nc3cccc(C(F)(F)F)c3)cc2)cc1 | 1 | 1 | 49.5 | 15.1 | Active | 76
O=C(COc1ccc(C(=O)Nc2ccc(Oc3ccc(Br)cc3)cc2)cc1)NCc1ccc(Cl)cc1 | 72 | 42 | – | – | – | –
COc1ccc(CNC(=O)COc2ccc(C(=O)Nc3cccc(Cl)c3)cc2)cc1 | 5 | 5 | 12.7 | 5.9 | Active | 90
COc1ccc(CNC(=O)COc2ccc(C(=O)Nc3ccccc3F)cc2)cc1 | 66 | 70 | – | – | – | –
Cc1cccc(C)c1NC(=O)c1ccc(OCC(=O)NCc2ccc(Cl)cc2)cc1 | 77 | 55 | – | – | – | –
COc1ccc(NC(=O)c2ccc(OCC(=O)NCc3ccc(Cl)cc3)cc2)cc1OC | 56 | 45 | – | – | – | –
COc1ccc(CNC(=O)COc2ccc(C(=O)Nc3cccc(C)c3C)cc2)c(OC)c1 | 50 | 17 | – | – | – | –
Cc1cccc(NC(=O)c2ccc(OCC(=O)NCc3ccc(C(F)(F)F)cc3)cc2)c1C | 26 | 81 | – | – | – | –
CCc1cccc(NC(=O)c2ccc(OCC(=O)NCc3ccc(Cl)cc3)cc2)c1 | 69 | 49 | – | – | – | –
COc1ccc(CNC(=O)COc2ccc(C(=O)Nc3ccc(F)cc3)cc2)cc1 | 25 | 31 | 20.3 | 7.5 | Active | 86.2
COc1ccc(CNC(=O)COc2ccc(C(=O)Nc3ccc(OC)c(OC)c3)cc2)cc1 | 63 | 70 | – | – | – | –
COc1ccc(CNC(=O)COc2ccc(C(=O)Nc3cccc(C)c3C)cc2)cc1 | 50.6 | 48 | 15.7 | 14.3 | Active | 86.3
CCc1cccc(NC(=O)c2ccc(OCC(=O)NCc3ccc(OC)cc3)cc2)c1 | 51 | 51 | – | – | – | –
Cc1cccc(NC(=O)c2ccc(OCC(=O)NCc3ccc(Cl)cc3)cc2)c1C | 38 | 34 | 47.4 | 35.9 | Active | 73.5
COc1ccc(CNC(=O)COc2ccc(C(=O)Nc3cccc(C)c3C)cc2)cc1OC | 49 | 35 | 21.7 | 9.5 | Active | 83.9
Cc1ccc(CNC(=O)COc2ccc(C(=O)Nc3cccc(C)c3C)cc2)cc1 | 48 | 51 | – | – | – | –
CCc1ccccc1NC(=O)c1ccc(OCC(=O)NCc2ccc(OC)cc2)cc1 | 19 | 20 | 8.5 | 8.3 | Active | 78
Cc1cccc(NC(=O)c2ccc(OCC(=O)NCc3cccc(C(F)(F)F)c3)cc2)c1C | 57 | 106 | – | – | – | –
COc1ccc(CNC(=O)COc2ccc(C(=O)Nc3c(C)cccc3C)cc2)cc1 | 58 | 62 | – | – | – | –
O=C(COc1ccc(C(=O)Nc2cccc(C(F)(F)F)c2)cc1)NCc1ccc(Cl)cc1 | 46 | 44 | – | – | – | –
Cc1cccc(NC(=O)c2ccc(OCC(=O)NCc3ccc4c(c3)OCO4)cc2)c1C | 52 | 54 | – | – | – | –
Cc1cccc(NC(=O)c2ccc(OCC(=O)NCc3ccc([N+](=O)[O-])cc3)cc2)c1C | 23 | 144 | – | – | – | –
Cc1cccc(NC(=O)c2ccc(OCC(=O)NCc3ccc(Cl)cc3Cl)cc2)c1C | 52 | 61 | – | – | – | –
Cc1cccc(NC(=O)c2ccc(OCC(=O)NCc3ccc(F)cc3)cc2)c1C | 40 | 36 | 25.6 | 24.3 | Active | 90.4
